Consider 2 molecules from patent publication US8088395B2, “Phytol derived immunoadjuvants and their use in vaccine formulations” (priority 2004, dated 2012).

For series [1], the system named is BALB/c mice. As to the kind of experiment: Toxicity (LD50) after intraperitoneal injection. It counts as in vivo. To be noted: mg/ml injected vaccine formulation. As to the method:
The efficacy and side effects (such as toxicity, carcinogenic properties, and autoimmunogenic properties) of phytol and reduced phytol or phytanol (H-phytol) as adjuvants were compared with those of other known adjuvants that serve as the gold standard. Groups of 8-12 week old and gender matched BALB/c mice (n=21) were injected intraperitoneally with phytol (25-50 μl=20-40 mg/ml injected vaccine formulation) to determine toxicity. Similar studies were done with reduced phytol (phytanol) using 11 BALB/c mice. LD50 for phytol is 40 mg/ml and for phytanol >40 mg/ml. For comparison, equivalent concentrations/volumes of other Freund's adjuvants, a mineral oil pristane and a control (phosphate buffered saline) were tested for toxicity in terms of splenomegaly and local granuloma.

Series [2] has as its system BALB/c mice. Kind of series: Toxicity in terms of splenomegaly and local granuloma. It counts as in vivo. Here is the method:
with adjuvants: A, (PBS); B, […]; C, Incomplete Freund's adjuvant (IFA); D, phytol; E, Complete Freund's adjuvant (CFA); and F, reduced phytol (phytanol).
The efficacy and side effects (such as toxicity, carcinogenic properties, and autoimmunogenic properties) of phytol and reduced phytol or phytanol (H-phytol) as adjuvants were compared with those of other known adjuvants that serve as the gold standard. Groups of 8-12 week old and gender matched BALB/c mice (n=21) were injected intraperitoneally with phytol (25-50 μl=20-40 mg/ml injected vaccine formulation) to determine toxicity. Similar studies were done with reduced phytol (phytanol) using 11 BALB/c mice. […].

A further series concerns DNA. As to the kind of experiment: Autoimmune reactivity assessment (anti-DNA antibody response). The format is in vivo, mice. From the text:
In each set of experiments, groups of 5 mice were primed with an environmental antigen phthalate (Lim and Ghosh, Immunology, 110:482-492, 2003) as a conjugate (mg/ml) with keyhole limpet hemocyanin (KLH) in different adjuvants as shown in FIG. 5.

For a further series, the system named is 2C3 B-cell lymphoma. Kind of series: Induction of tumor-specific cytotoxic T cells (51Cr-release CTL assay). It counts as in vivo. To be noted: BALB/c mice, intraperitoneal adjuvant, live 2C3 tumor challenge, FIG. 8. As to the method:
A number of mice (BALB/c mice) were divided into four groups of six mice each. Each group was treated with intraperitoneal injections of one of […] adjuvant preparations. The adjuvant preparations were selected from IFA, phytol, and phytanol. A control group was injected intraperitoneally with PBS. Five days after the initial injections, each of the mice was injected with a live tumor challenge (5×10^6 of 2C3 B-cell lymphoma). Splenocytes were obtained form the tumor-challenged mice at the eighth day after the initial injections. The collected splenocytes were stimulated with killed 2C3 cells in vitro for five days. Effector cells were harvested from this preparation after five days of incubation. The effector cells were used in the 51Cr-release cytotoxic T lymphocyte (CTL) assay according to the procedure published in Chakrabarti D. and Ghosh S. K.: Cellular Immunology 144:445-464, 1996; Santra S. and Ghosh S. K.: cancer Immunol. Immunotherpy, 44:291-300, 1997; Laxmanan S., Stuart G. W. and Ghosh S. K. Ghosh, Cancer Immunol. Immunotherapy, 50:437-444, 2001; So-Yon Lim and Swapan K. Ghosh, Immunology, 110:482-492, 2003.

The subject of a further series is phthalate. Kind of series: Anti-phthalate antibody response by ELISA on phthalate-BSA coated plates. It counts as in vivo. To be noted: BALB/c mice primed intraperitoneally with phthalate-KLH emulsified in adjuvant, boosters at 10-day intervals, FIG. 6. Here is the method: Experimental BALB/c mice (n=6) were grouped and primed intraperitoneally with phthalate-KLH conjugates emulsified in each adjuvant. Control groups of mice were immunized with phosphate buffered saline (PBS). Boosters were given at 10-day intervals. The mice were bled through retro-orbital veins five days after each immunization. (reference describing this type of experiments: So-Yon Lim and Swapan K. Ghosh, Immunology, 110:482-492, 2003)
ELISA was performed to assess anti-phthalate humoral responses on phthalate-BSA coated plates.
(An ELISA detects its analyte on a solid surface through an enzyme-linked reagent.)

The structures appear in SMILES notation.

The molecule `C/C(=C\CO)CCC[C@H](C)CCC[C@H](C)CCCC(C)C` [phytol] yielded an LD50 in the series with BALB/c mice [1] of 40 mg/mL. Moreover, in the series on BALB/c mice [2] (BALB/c mice, local granuloma), the granuloma entry is reported as “milder than CFA”. In addition, the splenomegaly result with BALB/c mice [2] (BALB/c mice, spleens, FIGS. 3A-3F) is “comparable splenomegaly”; in the series on BALB/c mice [2] (BALB/c mice, spleens, FIGS. 3A-3F, listed as Phytol), “milder than CFA”. Moreover, in the series on DNA (mice primed with phthalate-KLH in the adjuvant, FIG. 5), the “anti-DNA response (autoimmune response)” value was “statistically insignificant anti-DNA response”. Besides, the “induction of tumor-specific killer T cells” value with 2C3 B-cell lymphoma is on record as “induction of tumor-specific killer T cells”.

As for `CC(C)CCC[C@@H](C)CCC[C@@H](C)CCCC(C)CCO` (stereo partly drawn) [phytanol, 3,7,11,15-tetramethyl-1-hexadecanol], the LD50 in the series on BALB/c mice [1] was greater than 40 mg/mL. Moreover, in the series with BALB/c mice [2] (mouse, in vivo), the granuloma entry is on record as “no granuloma” and the splenomegaly result is recorded as “none”. In addition, the “anti-DNA response (autoimmune response)” value in the series with DNA (mouse, in vivo) is “statistically insignificant anti-DNA response”. The anti-phthalate humoral response result with phthalate was “better than commonly used CFA/IFA and is as good as commercially available Ribi Adjuvant system (RAS)”. Moreover, in the series on 2C3 B-cell lymphoma, the “induction of tumor-specific killer T cells” value is recorded as “induction of tumor-specific killer T cells”.
